# Starred links: 1 amine or outer side, 2 acyl side, 3 side chain; linkers in the order of their positions; H or OH if unused. Positions of bridges follow the written chain, without caps; N, C: chain ends. Non-standard residues stand in square brackets, D forms with d. Residues, ends and D or L forms follow the SMILES beside them. Phe(3,4-(OMe)2) = COc1ccc(C[C@H](N)C(=O)O)cc1OC; Abu(4-yl) = O=C([C@H](CC[*:3])N[*:1])[*:2]; 2Nal = N[C@@H](Cc1ccc2ccccc2c1)C(=O)O; AEF = NCCOc1ccc(C[C@H](N)C(=O)O)cc1; αMeF = C[C@](N)(Cc1ccccc1)C(=O)O; αMeE = C[C@](N)(CCC(=O)O)C(=O)O; αMeK = C[C@](N)(CCCCN)C(=O)O; Thp = NC1(C(=O)O)CCOCC1; Aib = CC(C)(N)C(=O)O
# Target: IL-23R (Homo sapiens, UniProt Q5VWK5)
# Sequence (Q5VWK5 24-629): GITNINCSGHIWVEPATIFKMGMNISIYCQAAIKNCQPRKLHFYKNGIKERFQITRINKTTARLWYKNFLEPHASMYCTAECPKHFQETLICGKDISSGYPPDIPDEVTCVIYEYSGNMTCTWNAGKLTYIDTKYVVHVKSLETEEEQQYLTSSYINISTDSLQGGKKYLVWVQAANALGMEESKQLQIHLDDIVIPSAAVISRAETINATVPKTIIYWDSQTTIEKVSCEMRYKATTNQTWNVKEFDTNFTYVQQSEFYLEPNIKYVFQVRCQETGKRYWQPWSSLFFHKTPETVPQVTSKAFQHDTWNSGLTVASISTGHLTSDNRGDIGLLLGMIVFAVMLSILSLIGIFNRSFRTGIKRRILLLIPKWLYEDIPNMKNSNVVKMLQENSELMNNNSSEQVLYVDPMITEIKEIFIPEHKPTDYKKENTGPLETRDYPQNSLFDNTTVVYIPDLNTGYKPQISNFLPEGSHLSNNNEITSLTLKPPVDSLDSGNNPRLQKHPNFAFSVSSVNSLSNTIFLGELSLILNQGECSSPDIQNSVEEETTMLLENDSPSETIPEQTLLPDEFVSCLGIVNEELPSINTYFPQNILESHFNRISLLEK
# Experiment: cell-based
# Details: PBMC pSTAT3 IC50 (nM), PBMCs from healthy donors, IL-23 5 ng/mL, 30 minutes, phosphorylated STAT3
# 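Also: cryopreserved PBMCs stimulated at 37 °C in 5% CO2, then lysed, with phosphorylated STAT3 quantified in lysates using a phospho-STAT panel kit.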
# Protocol: Cryopreserved peripheral blood mononuclear cells (PBMCs) from healthy donors were thawed and washed twice in ImmunoCult-XF T cell expansion medium (XF-TCEM) supplemented with CTL anti-aggregate wash. […] The cells were stimulated with cytokine for 30 minutes at 37° C. in 5% CO2, transferred onto ice for 10 minutes, and lysed. Cell lysates were stored at −80° C. until phosphorylated STAT3 was measured using the phospho-STAT panel kit (Meso Scale Discovery, K15202D).
smiles,measurement,value
"COc1ccc(C[C@H](NC(=O)[C@@H]2CSCC[C@H](NC(=O)[C@@H](CCCNC(=N)N)NC(C)=O)C(=O)N[C@@H](CCC(N)=O)C(=O)N[C@@H]([C@@H](C)O)C(=O)N[C@@H](Cc3c[nH]c4ccccc34)C(=O)N[C@@H](CCC(N)=O)C(=O)N2)C(=O)N[C@@H](Cc2ccc3ccccc3c2)C(=O)NC2(C(=O)N[C@@](C)(CCC(=O)O)C(=O)N[C@@H](CC(N)=O)C(=O)N[C@@](C)(Cc3ccccc3)C(N)=O)CCOCC2)cc1OC [Compound 41, Ac-[(D)Arg]-[Abu]-Q-T-W-Q-[Cys]-[Phe(3,4-diOMe)]-[2-Nal]-[THP]-[aMeGlu]-N-[a-MePhe]-NH2] (Ac-[dR][Abu(4-yl)]QTWQC[Phe(3,4-(OMe)2)][2Nal][Thp][αMeE]N[αMeF]-NH2; thioether 2-7)",IC50,2500 nM
"CC(=O)N[C@H](CCCNC(=N)N)C(=O)N[C@H]1CCSC[C@@H](C(=O)N[C@@H](Cc2ccc(OCCN)cc2)C(=O)N[C@@H](Cc2ccc3ccccc3c2)C(=O)NC2(C(=O)N[C@@](C)(CCC(=O)O)C(=O)N[C@@H](CC(N)=O)C(=O)N[C@@H](Cc3ccccc3)C(=O)NC(C)(C)C(=O)N[C@@](C)(CCCCN)C(N)=O)CCOCC2)NC(=O)[C@H](CCC(N)=O)NC(=O)[C@H](Cc2c[nH]c3ccccc23)NC(=O)[C@H]([C@@H](C)O)NC(=O)[C@H](CCC(N)=O)NC1=O [Compound 43, Ac-[(D)Arg]-[Abu]-Q-T-W-Q-[Cys]-Phe[4-(2-aminoethoxy)]-[2-Nal]-[THP]-[aMeGlu]-N-F-[Aib]-[a-MeLys]-NH2] (Ac-[dR][Abu(4-yl)]QTWQC[AEF][2Nal][Thp][αMeE]NF[Aib][αMeK]-NH2; thioether 2-7)",IC50,8.2 nM
"CC(=O)N[C@H](CCCNC(=N)N)C(=O)N[C@H]1CCSC[C@@H](C(=O)N[C@@H](Cc2ccc(OCCN)cc2)C(=O)N[C@@H](Cc2ccc3ccccc3c2)C(=O)NC2(C(=O)N[C@@](C)(CCC(=O)O)C(=O)N[C@@H](CC(N)=O)C(=O)N[C@@](C)(Cc3ccc(O)cc3)C(N)=O)CCOCC2)NC(=O)[C@H](CCC(N)=O)NC(=O)[C@H](Cc2c[nH]c3ccccc23)NC(=O)[C@H]([C@@H](C)O)NC(=O)[C@H](CCC(N)=O)NC1=O [Compound 44, Ac-[(D)Arg]-[Abu]-Q-T-W-Q-[Cys]-Phe[4-(2-aminoethoxy)]-[2-Nal]-[THP]-[aMeGlu]-N-[aMeTyr]-NH2]",IC50,9.3 nM
"CC(=O)N[C@H](CCCNC(=N)N)C(=O)N[C@H]1CCSC[C@@H](C(=O)N[C@@H](Cc2ccc(OCCN)cc2)C(=O)N[C@@H](Cc2ccc3ccccc3c2)C(=O)NC2(C(=O)N[C@@](C)(CCC(=O)O)C(=O)N[C@@H](CC(N)=O)C(=O)N[C@@H](Cc3cc(F)cc(F)c3)C(N)=O)CCOCC2)NC(=O)[C@H](CCC(N)=O)NC(=O)[C@H](Cc2c[nH]c3ccccc23)NC(=O)[C@H]([C@@H](C)O)NC(=O)[C@H](CCC(N)=O)NC1=O [Compound 46, Ac-[(D)Arg]-[Abu]-Q-T-W-Q-[Cys]-Phe[4-(2-aminoethoxy)]-[2-Nal]-[THP]-[aMeGlu]-N-[Phe(3,5-diF)]-NH2]",IC50,48 nM
"C[C@@H](O)[C@@H]1NC(=O)[C@H](CCC(N)=O)NC(=O)[C@@H](NC(=O)[C@H](N)CCCNC(=N)N)CCSC[C@@H](C(=O)N[C@@H](Cc2ccc(OCCNC(=O)OC(C)(C)C)cc2)C(=O)N[C@@H](Cc2ccc3ccccc3c2)C(=O)NC2(C(=O)N[C@@H](CCC(=O)O)C(=O)N[C@@H](CC(N)=O)C(=O)NC3(C(N)=O)CCOCC3)CCOCC2)NC(=O)[C@H](CCC(N)=O)NC(=O)[C@H](Cc2c[nH]c3ccccc23)NC1=O [Compound 47, [(D)Arg]-[Abu]-Q-T-W-Q-[Cys]-Phe[4-(2-(Boc)aminoethoxy)]-[2-Nal]-[THP]-E-N-[THP]-NH2]",IC50,5.3 nM

# Reference: US20240383954A1, “PEPTIDE INHIBITORS OF INTERLEUKIN-23 RECEPTOR AND THEIR USE TO TREAT INFLAMMATORY DISEASES” (Janssen Biotech, Inc., priority 2020, published 2024)
